Reference: PubChem BioAssay (NCI)
“And” between values parts separate entries of the source, which are not always exact repeats. Equal entries are not always repeated.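 Cells were grown in 96-well plates and exposed to each compound for 48 hours at five concentrations; endpoints were interpolated linearly between bracketing concentrations, or set to the highest concentration if not reached. Here, GI50 denotes the concentration required for 50% inhibition of growth. TGI marks complete inhibition of growth.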

Legend:
Assay in all cases: NCI tumour cell line growth inhibition, 48 h
CCRF-CEM leukemia = test system: CCRF-CEM leukemia
HL-60(TB) leukemia = test system: HL-60(TB) leukemia
MOLT-4 leukemia = test system: MOLT-4 leukemia
NCI-H460 lung = test system: NCI-H460 lung
SF-539 CNS = test system: SF-539 CNS
SR leukemia = test system: SR leukemia
BT-549 breast = test system: BT-549 breast
PC-3 prostate = test system: PC-3 prostate
LOX IMVI melanoma = test system: LOX IMVI melanoma
MDA-MB-435 = test system: MDA-MB-435

Row | SMILES | TGI (CCRF-CEM leukemia) | TGI (HL-60(TB) leukemia) | TGI (MOLT-4 leukemia) | TGI (NCI-H460 lung) | TGI (SF-539 CNS) | TGI (SR leukemia) | TGI (BT-549 breast) | GI50 (MOLT-4 leukemia) | GI50 (NCI-H460 lung) | TGI (PC-3 prostate) | TGI (LOX IMVI melanoma) | GI50 (BT-549 breast) | GI50 (HL-60(TB) leukemia) | GI50 (LOX IMVI melanoma) | GI50 (PC-3 prostate) | GI50 (SF-539 CNS) | GI50 (SR leukemia) | TGI (MDA-MB-435)
1 | Cc1ccccc1N1C(=O)/C(=C/c2ccc(N(CCC#N)CCC#N)cc2)N=C1c1cc([N+](=O)[O-])ccc1Cl | > 100 µM | > 100 µM | > 100 µM | > 100 µM | > 100 µM | > 100 µM |  |  |  |  |  |  |  |  |  |  |  | 
2 | OCCN1CN(CCO)CN(c2nc(N3CN(CCO)CN(CCO)C3)nc(N3CN(CCO)CN(CCO)C3)n2)C1 |  |  | 4.78 ng/mL | 3.85 ng/mL |  | 0.63 ng/mL | 1.55 ng/mL | 1.23 ng/mL | 0.92 ng/mL | 3.51 ng/mL |  |  |  |  |  |  |  | 
3 | CC1OC(n2cc(F)c(=O)[nH]c2=O)C=CC1O (stereo not drawn) | > 77.9 µM | > 100 µM | > 100 µM | > 100 µM | > 100 µM | > 100 µM |  |  |  |  | > 64.3 µM |  |  |  |  |  |  | 
4 | O=S(O)CCCCSSCC(O)C(O)CSSCCCCS(=O)O (stereo not drawn) | 31.9 µM and 26.2 µM | 53.9 µM and > 100 µM | 6.69 µM and 9.58 µM | > 100 µM | 69.7 µM and > 100 µM |  |  |  |  |  | 38.1 µM and 72.7 µM |  |  |  |  |  |  | 
5 | CCOP(=O)(Cc1ccc(CP(=O)(OCC)OCC)n1C)OCC | > 100 µM | > 100 µM | > 100 µM | > 100 µM | > 100 µM |  |  |  |  |  | > 100 µM |  |  |  |  |  |  | 
6 | COc1ccc(N(C)c2ncnc3occ(C)c23)cc1 |  | < 0.01 µM | 0.0481 µM |  | < 0.01 µM | 0.236 µM | > 62.4 µM | < 0.01 µM | < 0.01 µM | > 51.8 µM | > 100 µM | < 0.0244 µM | < 0.01 µM | < 0.01 µM | < 0.01 µM | < 0.01 µM | < 0.01 µM | 
7 | CCCCCCCCCC/C=C/CC(=O)SCCNC(=O)CCNC(=O)[C@@H](O)C(C)(C)COP(=O)(O)OP(=O)(O)OCC1OC(n2cnc3c(N)ncnc32)C(O)C1OP(=O)(O)O (stereo partly drawn) | > 10 µM | > 10 µM | > 10 µM | > 10 µM | > 10 µM |  |  |  |  | > 10 µM | > 10 µM |  |  |  |  |  |  | > 10 µM
8 | Cc1ccc(S(=O)(=O)NCC2CCCCC2=O)cc1 (stereo not drawn) | > 100 µM | > 100 µM | > 100 µM | > 100 µM | > 100 µM |  |  |  |  |  | > 100 µM |  |  |  |  |  |  | 
9 | CCN(CC)CCOc1ccc(/C=C(\C#N)c2ccc(OCCN(CC)CC)cc2)cc1 | 44.2 µM | 38.2 µM | 38.2 µM | 36.6 µM | 20.6 µM | 30 µM |  |  |  |  | 25.5 µM |  |  |  |  |  |  | 
